Reference: the NIST ThermoML archive (doi:10.1021/je900732r)

Assay: mn = molality of the nth substance listed, in mol/kg
Conditions: 101 kPa, Liquid; for speed of sound: Pulse-echo method

[Co+2].[O-][Cl+3]([O-])([O-])[O-].[O-][Cl+3]([O-])([O-])[O-] [cobalt(II) perchlorate] + CO
Conditions	mass density, 283.15 K [kg/m3]	mass density, 288.15 K [kg/m3]	mass density, 293.15 K [kg/m3]	mass density, 298.15 K [kg/m3]	mass density, 303.15 K [kg/m3]	mass density, 308.15 K [kg/m3]	mass density, 313.15 K [kg/m3]	speed of sound, 298.15 K [m/s]
m1 = 0.04954	810.666	806.009	801.334	796.648	791.945	787.216	782.455	1108.2
m1 = 0.0652	813.871	809.222	804.551	799.871	795.174	790.456	785.712	1110.5
m1 = 0.08043	816.972	812.325	807.661	802.983	798.285	793.568	788.838	1112.6
m1 = 0.09601	820.184	815.542	810.881	806.21	801.517	796.812	792.084	1114.6
m1 = 0.1106	823.205	818.568	813.913	809.247	804.564	799.855	795.128	1116.9
m1 = 0.1255	826.259	821.625	816.975	812.313	807.634	802.929	798.211	1118.6
m1 = 0.157	832.839	828.214	823.572	818.918	814.251	809.557	804.844	1122.7
m1 = 0.1876	839.345	834.726	830.096	825.452	820.793	816.116	811.415	1127
m1 = 0.2171	845.636	841.028	836.402	831.765	827.115	822.438	817.746	1131
m1 = 0.2464	851.879	847.275	842.656	838.024	833.388	828.73	824.046	1135
m1 = 0.2747	858.053	853.458	848.847	844.226	839.592	834.938	830.254	1138.9
m1 = 0.3036	864.446	859.854	855.253	850.642	846.019	841.375	836.709	1143

[Ni+2].[O-][Cl+3]([O-])([O-])[O-].[O-][Cl+3]([O-])([O-])[O-] [nickel perchlorate] + CO
Conditions	mass density, 283.15 K [kg/m3]	mass density, 288.15 K [kg/m3]	mass density, 293.15 K [kg/m3]	mass density, 298.15 K [kg/m3]	mass density, 303.15 K [kg/m3]	mass density, 308.15 K [kg/m3]	mass density, 313.15 K [kg/m3]	speed of sound, 298.15 K [m/s]
m1 = 0.04976	810.894	806.238	801.564	796.875	792.174	787.453	782.702	1108.7
m1 = 0.06138	813.322	808.669	804	799.318	794.619	789.897	785.142	1110.3
m1 = 0.07317	815.812	811.165	806.497	801.821	797.126	792.41	787.658	1111.9
m1 = 0.08448	818.152	813.508	808.845	804.169	799.474	794.767	790.033	1113.4
m1 = 0.09669	820.699	816.056	811.401	806.731	802.044	797.34	792.608	1115.2
m1 = 0.1085	823.23	818.592	813.937	809.271	804.589	799.878	795.147	1116.7
m1 = 0.1208	825.801	821.168	816.518	811.856	807.179	802.481	797.759	1118.3
m1 = 0.1447	830.859	826.231	821.586	816.93	812.261	807.568	802.853	1121.7
m1 = 0.1676	835.774	831.151	826.515	821.865	817.198	812.514	807.813	1124.8
m1 = 0.1901	840.657	836.042	831.412	826.771	822.114	817.44	812.739	1127.8
m1 = 0.2123	845.469	840.858	836.233	831.599	826.95	822.28	817.588	1130.6
m1 = 0.2356	850.636	846.033	841.413	836.783	832.14	827.476	822.785	1134.2
